According to patent publication US10383880B2 (Reset Therapeutics, Inc., priority 2012, dated 2019):

The compounds below were run on Per2-dLuc U2OS reporter cells (assay: Per2 assay for evaluating the potency of test compounds (high-throughput circadian assay)). Details: Homo sapiens, U2OS, stable U2OS reporter cells harboring Per2-dLuc; luminescence monitored over 4-5 days at 35° C.
Assay type: cell-based
Protocol: Compounds were screened by using a high-throughput circadian assay system as previously described in Zhang, E. E. et al. Cell, 2009, 139, 199-210. In brief, stable U2OS reporter cells harboring Per2-dLuc were plated at a density of 8,000 cells/well in Corning 96-well, solid white, flat bottom, TC-treated microplates (Corning®), and incubated for 24 hours at 37° C. in the presence of 5% CO2. The cells were then synchronized by serum shock by media exchange to a minimal explant media (10 mM HEPES (pH 7.0), 2% B27, 1×PSG (Invitrogen®), and 1.0 mM beetle luciferin (Promega®)) followed by the addition of the compounds of formula I dissolved in dimethylsulfoxide (0.5% final dimethylsulfoxide concentration). Gene expression was monitored by measuring luminescence (TecanR M200) over 4-5 days at 35° C. The period, amplitude, and phase of the associated circadian rhythms were determined using Multicycle™ software (Actimetrics, Inc). EC50 values of the compounds of formula I were calculated using Graphpad™ (Prism®).

SMILES	EC50 [nM]
CS(=O)(=O)N(CC(O)Cn1c2ccccc2c2ccccc21)c1ccccc1I (stereo not drawn) [Compound 26, N-(3-(9H-Carbazol-9-yl)-2-hydroxypropyl)-N-(2-iodophenyl)methanesulfonamide]	1300
CC(O)(CN1CCNS1(=O)=O)Cn1c2ccc(F)cc2c2cc(F)ccc21 (stereo not drawn) [Compound 176]	125
O=S1(=O)c2ccccc2CN1CC(O)Cn1c2ccccc2c2ccccc21 (stereo not drawn) [Compound 34, N-(3-(9H-Carbazol-9-yl)-2-hydroxypropyl)-2,3-dihydrobenzo[d]isothiazole 1,1-dioxide]	31
CS(=O)(=O)N(CC(O)Cn1c2ccc(F)cc2c2cc(F)ccc21)c1ccc(-c2cc[nH]n2)cc1 (stereo not drawn) [Compound 214, N-(4-(1H-Pyrazol-3-yl)phenyl)-N-(3-(3,6-difluoro-9H-carbazol-9-yl)-2-hydroxypropyl)methanesulfonamide]	6560
CS(=O)(=O)N(CC(O)Cn1c2ccc(F)cc2c2cc(F)ccc21)c1ccc(-c2c[nH]cn2)cc1 (stereo not drawn) [Compound 204, N-(4-(1H-Imidazol-4-yl)phenyl)-N-(3-(3,6-difluoro-9H-carbazol-9-yl)-2-hydroxypropyl)methanesulfonamide]	2550
CC(O)(CN1CCN(C2CCC2)S1(=O)=O)Cn1c2ccc(F)cc2c2cc(F)ccc21 (stereo not drawn) [Compound 235]	6460
COCCCS(=O)(=O)N(Cc1ccco1)CC(O)Cn1c2ccccc2c2ccccc21 (stereo not drawn) [Compound 9, N-(3-(9H-Carbazol-9-yl)-2-hydroxypropyl)-N-(furan-2-ylmethyl)-3-methoxypropane-1-sulfonamide]	2860
CC(O)(CN1CCCS1(=O)=O)Cn1c2ccc(F)cc2c2cc(F)ccc21 (stereo not drawn) [Compound 115, 2-(3-(3,6-Difluoro-9H-carbazol-9-yl)-2-hydroxy-2-methylpropyl)-isothiazolidine-1,1-dioxide]	232
CC1CC(N(CC(O)Cn2c3ccc(F)cc3c3cc(F)ccc32)S(C)(=O)=O)C1 (stereo not drawn) [Compound 190, N-(3-(3,6-Difluoro-9H-carbazol-9-yl)-2-hydroxypropyl)-N-(3-methylcyclobutyl)methanesulfonamide]	211
COc1cccc(N(CC(O)Cn2c3ccccc3c3ccccc32)S(C)(=O)=O)c1 (stereo not drawn) [Compound 73, N-(3-(9H-Carbazol-9-yl)-2-hydroxypropyl)-N-(3-methoxyphenyl)methanesulfonamide]	2990
CS(=O)(=O)N(Cc1ccco1)CC(O)Cn1c2ccc(F)cc2c2c(F)cccc21 (stereo not drawn) [Compound 109, N-(3-(3,5-Difluoro-9H-carbazol-9-yl)-2-hydroxypropyl)-N-(furan-2-ylmethyl)methanesulfonamide]	7420
CCN1CCN(CC(C)(O)Cn2c3ccc(F)cc3c3cc(F)ccc32)S1(=O)=O (stereo not drawn) [Compound 219]	1580
CS(=O)(=O)N(CC(O)Cn1c2ccccc2c2ccccc21)CC1CC2CCC1O2 (single isomer, unassigned) [Compound 69, N-(7-Oxabicyclo[2.2.1]heptan-2-ylmethyl)-N-(3-(9H-carbazol-9-yl)-2-hydroxypropyl)methanesulfonamide]	759
O=S1(=O)c2ccccc2CCN1CC(O)Cn1c2ccccc2c2ccccc21 (stereo not drawn) [Compound 43, N-(3-(9H-Carbazol-9-yl)-2-hydroxypropyl)-3,4-dihydro-2H-benzo[e][1,2]thiazine 1,1-dioxide]	3000
CCCOc1ccc(N(CC(O)Cn2c3ccc(F)cc3c3cc(F)ccc32)S(C)(=O)=O)cc1 (stereo not drawn) [Compound 203, N-(3-(3,6-Difluoro-9H-carbazol-9-yl)-2-hydroxypropyl)-N-(4-propoxyphenyl)methanesulfonamide]	1770
CN(CC(O)Cn1c2cc(F)ccc2c2ccc(F)cc21)S(C)(=O)=O (stereo not drawn) [Compound 94, N-(3-(2,7-Difluoro-9H-carbazol-9-yl)-2-hydroxypropyl)-N-methylmethanesulfonamide]	3450
CS(=O)(=O)N(CC(O)Cn1c2ccccc2c2ccccc21)c1ccccc1 (stereo not drawn) [Compound 23, N-(3-(9H-Carbazol-9-yl)-2-hydroxypropyl)-N-phenylmethanesulfonamide]	90
CC(CN(CC(O)Cn1c2ccccc2c2ccccc21)S(C)(=O)=O)c1ccccc1 (stereo not drawn) [Compound 70, N-(3-(9H-Carbazol-9-yl)-2-hydroxypropyl)-N-(2-phenylpropyl)methanesulfonamide]	8970
CC1CCCCC1N(CC(O)Cn1c2ccccc2c2ccccc21)S(C)(=O)=O (single isomer, unassigned) [Compound 127, N-(3-(9H-Carbazol-9-yl)-2-hydroxypropyl)-N-(2-methylcyclohexyl)methanesulfonamide]	4010
CCN(CC(O)Cn1c2ccc(F)cc2c2ccc(F)cc21)S(C)(=O)=O (stereo not drawn) [Compound 164, N-(3-(2,6-Difluoro-9H-carbazol-9-yl)-2-hydroxypropyl)-N-ethylmethanesulfonamide]	200

SMILES	EC50 [nM]
CS(=O)(=O)N(CC(O)Cn1c2ccccc2c2ccccc21)c1ccc2sccc2c1 (stereo not drawn) [Compound 65, N-(3-(9H-Carbazol-9-yl)-2-hydroxypropyl)-N-(benzo[b]thiophen-5-yl)methanesulfonamide]	9500
CS(=O)(=O)N(CC(O)Cn1c2ccccc2c2ccccc21)c1ccc2ccccc2c1 (stereo not drawn) [Compound 48, N-(3-(9H-Carbazol-9-yl)-2-hydroxypropyl)-N-(naphthalen-2-yl)methanesulfonamide]	1500
CS(=O)(=O)N(Cc1ccco1)CC(O)Cn1c2ccccc2c2ccccc21 (stereo not drawn) [Compound 1, N-(3-(9H-Carbazol-9-yl)-2-hydroxypropyl)-N-(furan-2-ylmethyl)methanesulfonamide]	340
CC1CC(N(CC(C)(O)Cn2c3ccc(F)cc3c3cc(F)ccc32)S(C)(=O)=O)C1 (stereo not drawn) [Compound 191, N-(3-(3,6-Difluoro-9H-carbazol-9-yl)-2-hydroxy-2-methylpropyl)-N-(3-methylcyclobutyl)methanesulfonamide]	1190
CS(=O)(=O)N(CC(O)Cn1c2ccccc2c2ccccc21)c1cccc2ccccc12 (stereo not drawn) [Compound 27, N-(3-(9H-Carbazol-9-yl)-2-hydroxypropyl)-N-(naphthalen-1-yl)methanesulfonamide]	250
CC(C)N1CCCN(CC(C)(O)Cn2c3ccc(F)cc3c3cc(F)ccc32)S1(=O)=O (stereo not drawn) [Compound 218, 2-(3-(3,6-Difluoro-9H-carbazol-9-yl)-2-hydroxy-2-methylpropyl)-6-isopropyl-1,2,6-thiadiazinane-1,1-dioxide]	9780
CC1(C)CC1N(CC(O)Cn1c2ccccc2c2ccccc21)S(C)(=O)=O (stereo not drawn) [Compound 132, N-(3-(9H-Carbazol-9-yl)-2-hydroxypropyl)-N-(2,2-dimethylcyclopropyl)methanesulfonamide]	348
CC1CCCC1N(CC(C)(O)Cn1c2ccc(F)cc2c2cc(F)ccc21)S(C)(=O)=O (stereo not drawn) [Compound 192, N-(3-(3,6-Difluoro-9H-carbazol-9-yl)-2-hydroxy-2-methylpropyl)-N-(2-methylcyclopentyl)methanesulfonamide]	686
CC(O)(CN1CCC(C)(C)S1(=O)=O)Cn1c2ccc(F)cc2c2cc(F)ccc21 (stereo not drawn) [Compound 180, 2-(3-(3,6-Difluoro-9H-carbazol-9-yl)-2-hydroxy-2-methylpropyl)-5,5-dimethylisothiazolidine-1,1-dioxide]	1650
O=S1(=O)N(CC(O)Cn2c3ccc(F)cc3c3cc(F)ccc32)CCN1C1CCCC1 (stereo not drawn) [Compound 231]	1500
O=S1(=O)CCCCN1CC(O)Cn1c2cc(F)ccc2c2c(F)cccc21 (stereo not drawn) [Compound 96, N-(3-(2,5-Difluoro-9H-carbazol-9-yl)-2-hydroxypropyl)-1,2-thiazinane 1,1-dioxide]	456
COCCN(CC(O)Cn1c2ccccc2c2ccccc21)S(C)(=O)=O (stereo not drawn) [Compound 30, N-(3-(9H-Carbazol-9-yl)-2-hydroxypropyl)-N-(2-methoxyethyl)methanesulfonamide]	390
CS(=O)(=O)N(Cc1cccc(F)c1)CC(O)Cn1c2ccccc2c2ccccc21 (stereo not drawn) [Compound 67, N-(3-(9H-Carbazol-9-yl)-2-hydroxypropyl)-N-(3-fluorobenzyl)methanesulfonamide]	3140
CN(CC(O)Cn1c2cc(F)ccc2c2c(F)cccc21)S(C)(=O)=O (stereo not drawn) [Compound 98, N-(3-(2,5-Difluoro-9H-carbazol-9-yl)-2-hydroxypropyl)-N-methylmethanesulfonamide]	8100
CS(=O)(=O)N(CC(O)Cn1c2ccc(F)cc2c2cc(F)ccc21)c1ccccc1 (stereo not drawn) [Compound 199, N-(3-(3,6-Difluoro-9H-carbazol-9-yl)-2-hydroxypropyl)-N-phenylmethanesulfonamide]	544
O=S1(=O)C(F)CCN1CC(O)Cn1c2ccccc2c2ccccc21 (stereo not drawn) [Compound 120, 2-(3-(9H-Carbazol-9-yl)-2-hydroxypropyl)-5-fluoro-isothiazolidine-1,1-dioxide]	23
CC(=O)N1CCC(N(CC(O)Cn2c3ccccc3c3ccccc32)S(C)(=O)=O)CC1 (stereo not drawn) [Compound 59, N-(3-(9H-Carbazol-9-yl)-2-hydroxypropyl)-N-(1-acetylpiperidin-4-yl)methanesulfonamide]	9580
CS(=O)(=O)N(CC(O)Cn1c2ccc(F)cc2c2ccc(F)cc21)C1CC1 (stereo not drawn) [Compound 167, N-Cyclopropyl-N-(3-(2,6-difluoro-9H-carbazol-9-yl)-2-hydroxypropyl)methanesulfonamide]	267
O=S(=O)(CC(F)(F)F)N(Cc1ccco1)CC(O)Cn1c2ccccc2c2ccccc21 (stereo not drawn) [Compound 7, N-(3-(9H-Carbazol-9-yl)-2-hydroxypropyl)-2,2,2-trifluoro-N-(furan-2-ylmethyl)ethanesulfonamide]	2100
